Experimental data as given in paper PMC9421654, “Discovery of Substituted Di(pyridin-2-yl)-1,2,4-thiadiazol-5-amines as Novel Macrofilaricidal Compounds for the Treatment of Human Filarial Infections” (Journal of Medicinal Chemistry, 2022).
Converted amounts (≈) assume the structure as drawn. “And” between values parts separate entries of the source, which are not always exact repeats. Equal values may be shown once. Read-outs that look alike come from different tables or passages of the source.

Key:
[1] = test system: L. sigmodontis adult worms; conditions: mouse, in vivo
[2] = test system: L. sigmodontis adult worms; test: In vivo efficacy, L. sigmodontis-infected jirds; parameters: species or system jird (Meriones unguiculatus); conditions: 2 mg/kg QD 5d SC
[3] = LogD measurement (octanol-water); type: physicochemical
Outline: (§1)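 Human and rat liver microsomes (0.3 mg/mL) with 1 mM NADPH and 3µM substrate, 30 minutes at 37 °C in pH 7.4 phosphate/MgCl2, triplicate; LC-MS/MS percentage remaining. LogD: octanol/aqueous buffer (pH 7.4, 2.2, 6.8, 5), 24 h shaking at room temperature. Kinetic solubility: 200 µM, 2% DMSO, 24 h, filtered.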

[4] = Kinetic solubility measurement; type: physicochemical; conditions: 10 mM DMSO stock solutions
Outline: as §1

[5] = Liver microsome metabolic stability assay, rat; type: in vitro ADME; conditions: Table 1; 3 μM, 30 min
Procedure: (§2) Liver Microsome Metabolic Stability Assay: Incubations were performed at 37 °C in a Dubnoff Shaking water bath using 2 mL 96-well incubation plates. Liver microsome protein concentration was 0.3 mg/mL the final concentration of NADPH was 1 mM. Substrate concentrations are 3µM, incubation time is 30 minutes, and all tests are done in triplicate. The incubation was conducted in 200 mM Phosphate buffer containing 2 mM magnesium chloride, pH=7.4 and the total incubation volume was 0.5 mL. Samples were analyzed via LC-MS/MS and reported as percentage remaining after 30minute incubation, which can then be converted to half-life and intrinsic clearance. […]

[6] = test system: O. gutturosa adult male worms; test: O. gutturosa adult worm ex vivo assay, MTT/formazan viability; type: cell-based, Onchocerca gutturosa; conditions: Onchocerca gutturosa, supplement; SD in brackets in the PDF table; read-out: O. gutturosa EC50 (uM) MTT viability inhibition
Outline: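 Adult male worms from naturally infected Gambian cattle were kept individually in MEM with 10% newborn calf serum at 37 °C, 5% CO2; four worms per concentration. Motility was scored 0-10 every 24 h to 120 h as a percentage of maximum, with ≥50% reduction versus untreated counted active. Afterwards, MTT (0.5 mg/mL, 30 min) formazan was read at 490 nm.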

[7] = Liver microsome metabolic stability assay, human; type: in vitro ADME; conditions: 3 μM, 30 min
Procedure: as §2

[8] = test system: O. gutturosa adult male worms; test: O. gutturosa adult worm ex vivo assay, motility; type: cell-based, Onchocerca gutturosa; conditions: Onchocerca gutturosa
Outline: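 Adult male O. gutturosa from naturally infected cattle were cultured in supplemented MEM at 37 °C, 5% CO2, with four worms per concentration in serial 1-in-4 dilutions. Motility (0–10 scale) was scored every 24 h to 120 h. EC50 (geomean, n=2) for motility reduction came from 4PL fits, and viability was checked by MTT at 120 h.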

Mouse pharmacokinetics = type: in vivo; conditions: male CD-1 mouse, PO 30 mg/kg suspension
From the text: All animal experiments were approved by the Institutional Animal Care and Use Committee (IACUC) of Bristol Myers Squibb.

THLE-2 cells = test: THLE-2 cytotoxicity assay (ATP); conditions: Homo sapiens, THLE-2, 24 h, read-out: THLE IC50
Outline: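 THLE-2 cells in supplemented LHC-8 medium were exposed for 24 or 72 h to final concentrations of 0.01–300 μM. Viability was read as ATP by CellTiter-Glo luminescence and normalized to DMSO vehicle. IC50 came from nonlinear regression of dose-response curves.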

[9] = test system: L. sigmodontis adult worms; parameters: method as in PMID 35834918; conditions: infected mice; cited from earlier work
[10] = Liver S9 metabolic stability assay, human; type: in vitro ADME; conditions: 3 μM, 60 min
Outline: (§3)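 Rat and human liver S9 (0.75 and 1.2 mg/ml) with 1 mM NADPH, 0.5 mM UDPGA, 2.5 mM GSH, 0.05 mg/ml PAPS, 3µM substrate, 60 min at 37 °C in Tris/MgCl2 pH 7.4. Mouse microsomes 0.3 mg/mL, 1 mM NADPH, 3µM, 30 min, phosphate pH 7.4. LC-MS/MS, % remaining, triplicate.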

[11] = Liver S9 metabolic stability assay, rat; type: in vitro ADME; conditions: 3 μM, 60 min
Outline: as §3

P-glycoprotein (MDR1) = target: T1, P-glycoprotein (MDR1) (Homo sapiens, UniProt P08183); test: MDCK/MDR1 permeability and efflux; type: in vitro ADME; conditions: dog
T1 construct: expressed in transfected cells; host or cells: MDCK (Madin Darby canine kidney) cells
T1 sequence (P08183 whole entry): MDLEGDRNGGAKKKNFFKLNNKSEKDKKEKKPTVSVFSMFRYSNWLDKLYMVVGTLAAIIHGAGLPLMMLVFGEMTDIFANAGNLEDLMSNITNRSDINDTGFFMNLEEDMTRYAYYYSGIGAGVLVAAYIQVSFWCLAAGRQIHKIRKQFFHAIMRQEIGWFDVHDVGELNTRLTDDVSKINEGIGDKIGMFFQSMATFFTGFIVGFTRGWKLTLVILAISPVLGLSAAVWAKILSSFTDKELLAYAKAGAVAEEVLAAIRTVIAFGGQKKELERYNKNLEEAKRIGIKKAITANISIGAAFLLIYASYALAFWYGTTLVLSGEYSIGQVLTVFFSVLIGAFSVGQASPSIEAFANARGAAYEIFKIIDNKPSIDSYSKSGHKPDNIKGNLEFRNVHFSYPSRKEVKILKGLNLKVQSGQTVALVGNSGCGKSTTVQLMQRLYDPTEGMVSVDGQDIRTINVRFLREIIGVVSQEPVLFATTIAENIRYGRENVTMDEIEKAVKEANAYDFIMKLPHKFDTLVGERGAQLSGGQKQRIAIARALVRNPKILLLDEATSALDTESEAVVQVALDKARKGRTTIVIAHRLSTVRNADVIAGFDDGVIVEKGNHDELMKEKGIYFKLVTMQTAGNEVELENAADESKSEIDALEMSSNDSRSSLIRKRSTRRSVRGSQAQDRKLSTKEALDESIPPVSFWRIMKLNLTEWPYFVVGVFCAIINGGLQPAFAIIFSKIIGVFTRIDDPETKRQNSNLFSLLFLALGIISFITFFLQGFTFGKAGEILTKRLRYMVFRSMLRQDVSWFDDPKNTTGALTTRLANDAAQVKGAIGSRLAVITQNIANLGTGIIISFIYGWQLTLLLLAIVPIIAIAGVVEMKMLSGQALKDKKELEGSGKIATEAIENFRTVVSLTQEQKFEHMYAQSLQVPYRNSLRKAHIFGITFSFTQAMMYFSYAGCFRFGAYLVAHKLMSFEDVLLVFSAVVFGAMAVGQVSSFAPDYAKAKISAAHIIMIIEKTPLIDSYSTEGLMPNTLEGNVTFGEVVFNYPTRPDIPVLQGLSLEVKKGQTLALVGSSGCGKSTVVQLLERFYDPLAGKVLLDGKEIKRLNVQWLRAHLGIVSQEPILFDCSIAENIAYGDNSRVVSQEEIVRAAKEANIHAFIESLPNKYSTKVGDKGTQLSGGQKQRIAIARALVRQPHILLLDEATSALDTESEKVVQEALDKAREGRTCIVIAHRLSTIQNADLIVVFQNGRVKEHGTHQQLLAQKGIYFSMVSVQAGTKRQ
From the text: (§4) Our approach was to target compounds with efflux ratio (ER) >2.5 in the MDCK cell line transfected with MDR1 (multidrug resistance-1 transfected Madin Darby canine kidney cell line). […] Our goal was to impart structural elements designed to impart Pgp recognition.

P-gp (MDR1) = target: T2, P-gp (MDR1) (Homo sapiens, UniProt P08183); test: MDCK/MDR1 permeability and efflux; type: in vitro ADME; conditions: dog
T2 construct: expressed in transfected cells; host or cells: MDCK (Madin Darby canine kidney) cells
T2 sequence (P08183 whole entry): as above
From the text: as §4

[12] = target: T3, hERG potassium channels (KCNH2, expressed in HEK293 cells) (Homo sapiens, UniProt Q12809); test: hERG inhibition; type: cell-based; conditions: supplement
T3 construct: expressed in transfected cells
T3 sequence (Q12809 whole entry): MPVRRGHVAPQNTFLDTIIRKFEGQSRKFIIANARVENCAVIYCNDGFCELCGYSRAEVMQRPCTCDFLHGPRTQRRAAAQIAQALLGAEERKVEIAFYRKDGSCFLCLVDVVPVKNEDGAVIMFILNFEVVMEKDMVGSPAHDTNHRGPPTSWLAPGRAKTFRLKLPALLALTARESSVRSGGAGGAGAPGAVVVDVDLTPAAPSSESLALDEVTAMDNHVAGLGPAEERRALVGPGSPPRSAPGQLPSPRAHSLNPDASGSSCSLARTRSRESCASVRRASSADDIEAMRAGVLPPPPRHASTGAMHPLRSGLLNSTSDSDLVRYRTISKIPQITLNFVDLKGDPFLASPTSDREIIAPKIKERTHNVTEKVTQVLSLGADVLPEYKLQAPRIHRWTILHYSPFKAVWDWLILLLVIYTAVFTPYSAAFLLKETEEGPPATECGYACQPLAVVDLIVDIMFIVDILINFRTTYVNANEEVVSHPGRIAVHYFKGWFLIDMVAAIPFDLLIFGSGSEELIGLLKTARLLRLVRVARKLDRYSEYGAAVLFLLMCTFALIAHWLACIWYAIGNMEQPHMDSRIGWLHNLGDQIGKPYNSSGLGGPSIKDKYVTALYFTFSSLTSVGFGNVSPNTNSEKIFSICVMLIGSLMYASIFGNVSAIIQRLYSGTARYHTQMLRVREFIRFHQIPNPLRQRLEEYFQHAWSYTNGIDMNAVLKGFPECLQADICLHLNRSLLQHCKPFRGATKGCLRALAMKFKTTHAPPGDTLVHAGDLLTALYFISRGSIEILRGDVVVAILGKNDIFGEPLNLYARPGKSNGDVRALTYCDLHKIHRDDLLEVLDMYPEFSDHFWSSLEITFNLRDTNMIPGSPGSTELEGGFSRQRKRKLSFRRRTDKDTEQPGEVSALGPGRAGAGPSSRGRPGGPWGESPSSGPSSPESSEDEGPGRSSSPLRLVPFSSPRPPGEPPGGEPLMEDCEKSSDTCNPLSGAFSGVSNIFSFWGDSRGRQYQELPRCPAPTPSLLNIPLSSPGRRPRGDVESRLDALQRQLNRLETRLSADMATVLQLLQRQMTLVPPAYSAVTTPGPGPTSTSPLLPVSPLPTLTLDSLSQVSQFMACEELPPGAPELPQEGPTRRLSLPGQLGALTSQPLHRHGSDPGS

[13] = supplement, read-out: measured logD
[14] = read-out: O. gutturosa EC50 μM (SD), ex vivo adult worm motility reduction, SD in brackets
[15] = read-out: O. gutturosa EC50 (uM) motility inhibition, supplement, SD in brackets in the PDF table

**Q.** With Flubendazole [FBZ, reference compound] as the compound, how does the “adult worm burden reduction” value [1] read?
**A.** The value was -98.8% and -100%.

**Q.** What about the “adult worm burden reduction” value ([2]; jirds infected SC with 40 L3 larvae (Fig 2C)) of the same compound?
**A.** Its value is -100%.

**Q.** What about the “reduction of adult worm burden” value ([2]; patent, naturally infected jirds) of the same compound?
**A.** The value was -100%.

**Q.** Which results are given for `Cc1cccnc1Nc1nnc(-c2ccc(OC3CCOCC3)cn2)o1` [Compound 7, (3-Methyl-pyridin-2-yl)-{5-[5-(tetrahydro-pyran-4-yloxy)-pyridin-2-yl]-[1,3,4]oxadiazol-2-yl}-amine]?
**A.** logD at 24 h [3, 13]: 1.55; solubility kinetic at 24 h [4]: 12.8 µM (≈ 4.52 µg/mL); Rat Microsomes [5]: 39 % remaining; EC50 [6]: 6.5 µM; Human Microsomes [7]: 83 % remaining; EC50 [8, 14]: 0.94 µM; EC50 [8, 15]: 0.935 µM

**Q.** For `COc1ccc(Nc2nc(-c3ccccn3)ns2)nc1` [Compound 2], which solubility kinetic at 24 h [4] is on record?
**A.** Its solubility kinetic at 24 h is 62.7 µM (≈ 17.9 µg/mL).

**Q.** What about the “AUC(0-inf)” value (Mouse pharmacokinetics) of the same compound?
**A.** The value was 3.61 ± 0.86 µM·h.

**Q.** What about the Cmax (Mouse pharmacokinetics) of the same compound?
**A.** Its Cmax is 1260 ± 290 nM.

**Q.** What about the Tmax (Mouse pharmacokinetics) of the same compound?
**A.** Its Tmax is 78 ± 30 min.

**Q.** What about the “Rat Microsomes” value [5] of the same compound?
**A.** Its value is 78 % remaining.

**Q.** And the EC50 [6]?
**A.** The EC50 was 1.5 µM.

**Q.** What about the “Human Microsomes” value [7] of the same compound?
**A.** Its value is 90 % remaining.

**Q.** What about the IC50 (THLE-2 cells) of the same compound?
**A.** The IC50 was over 300000 nM.

**Q.** And the EC50 [8, 14]?
**A.** The EC50 was 1.7 µM.

**Q.** With `COc1ccc(Nc2nc(-c3ccccn3)cs2)nc1` [Compound 1] as the compound, how does the “AUC(0-inf)” value (Mouse pharmacokinetics) read?
**A.** Its value is 1.58 ± 0.27 µM·h.

**Q.** And the Cmax (Mouse pharmacokinetics)?
**A.** The Cmax was 690 ± 180 nM.

**Q.** And the Tmax (Mouse pharmacokinetics)?
**A.** Its Tmax is 30 ± 0 min.

**Q.** And the “reduction of adult L. sigmodontis worms” value [9]?
**A.** The value was 68%.

**Q.** And the EC50 [6]?
**A.** The EC50 was 0.94 µM.

**Q.** What about the “Human S9 metabolic stability” value [10] of the same compound?
**A.** Its value is 59 % remaining.

**Q.** And the “Rat S9 metabolic stability” value [11]?
**A.** The value was 51 % remaining.

**Q.** And the IC50 (THLE-2 cells)?
**A.** The IC50 was 72400 nM.

**Q.** What about the EC50 [8, 14] of the same compound?
**A.** The EC50 was 0.27 µM.

**Q.** What does the source list for `Cc1cccnc1Nc1nnc(-c2ccc(OC3CCOCC3)cn2)s1` [Compound 4, 3-Methyl-N-{5-[5-(oxan-4-yloxy)pyridin-2-yl]-1,3,4-thiadiazol-2-yl}pyridin-2-amine]?
**A.** logD at 24 h [3, 13]: 2.7; solubility kinetic at 24 h [4]: 0.4 µM (≈ 0.148 µg/mL); Rat Microsomes [5]: 89 % remaining; EC50 [6]: 2.8 µM; Human Microsomes [7]: 100 % remaining; EC50 [8, 14]: 2.6 µM; EC50 [8, 15]: > 12 µM

**Q.** For `CC(C)Oc1ccc(-c2nsc(Nc3ncccc3C(N)=O)n2)nc1` [Compound 59, 2-((3-(5-Isopropoxypyridin-2-yl)-1,2,4-thiadiazol-5-yl)amino)nicotinamide], which logD at 24 h ([3]; pH 7.4, read-out: logD) is on record?
**A.** The logD at 24 h was 1.6.

**Q.** And the logD at 24 h [3, 13]?
**A.** The logD at 24 h was 1.6.

**Q.** And the Papp A→B (P-glycoprotein (MDR1))?
**A.** The Papp A→B was 0.79 ×10⁻⁶ cm/s.

**Q.** What about the Papp A→B (P-gp (MDR1)) of the same compound?
**A.** Its Papp A→B is 0.8 ×10⁻⁶ cm/s.

**Q.** And the solubility kinetic at 24 h [4]?
**A.** The solubility kinetic at 24 h was 0.3 µM (≈ 0.107 µg/mL).

**Q.** And the EC50 [6]?
**A.** The EC50 was 3.4 µM.

**Q.** What about the EC50 [8, 14] of the same compound?
**A.** Its EC50 is 2.6 µM.

**Q.** And the IC50 [12]?
**A.** The IC50 was over 30000 nM.
